The values below come from US20220251116A1, “ALKYLBORONIC ACIDS AS ARGINASE INHIBITORS” (Guangdong Newopp Biopharmaceuticals Co., Ltd., priority 2019, published 2022).

Assay [1] addresses recombinant human arginase 1 (Homo sapiens, UniProt P05089). Put plainly: Arginase inhibitory activity test, enzymatic assay based on urea measurement (Arg 1).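 Note: enzyme incubated with L-arginine substrate and compound at 37 °C for 120 min, urea product detected colorimetrically by absorbance at 450 nm, background from wells lacking enzyme.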
The target in assay [2] is T1, recombinant human arginase 2 (Homo sapiens, UniProt P78540).
T1 sequence (P78540 23-354): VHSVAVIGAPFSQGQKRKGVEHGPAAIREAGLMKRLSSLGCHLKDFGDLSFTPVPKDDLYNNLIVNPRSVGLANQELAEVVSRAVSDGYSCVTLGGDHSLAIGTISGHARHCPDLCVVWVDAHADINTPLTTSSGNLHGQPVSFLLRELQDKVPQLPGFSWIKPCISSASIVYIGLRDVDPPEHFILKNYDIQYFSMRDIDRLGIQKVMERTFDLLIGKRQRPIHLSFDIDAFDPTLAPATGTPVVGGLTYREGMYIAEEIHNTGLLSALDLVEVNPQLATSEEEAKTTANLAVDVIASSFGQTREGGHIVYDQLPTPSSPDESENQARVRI
Put plainly: Arginase inhibitory activity test, enzymatic assay based on urea measurement (Arg 2). Type of assay: biochemical. The settings on record: 37° C. for 120 min, urea detection, read-out: Arg 2 enzymatic potency. The source says: Urea was used as the standard.

Assay [3] addresses T2, recombinant human arginase 1 (Homo sapiens, UniProt P05089).
T2 sequence (P05089 1-322): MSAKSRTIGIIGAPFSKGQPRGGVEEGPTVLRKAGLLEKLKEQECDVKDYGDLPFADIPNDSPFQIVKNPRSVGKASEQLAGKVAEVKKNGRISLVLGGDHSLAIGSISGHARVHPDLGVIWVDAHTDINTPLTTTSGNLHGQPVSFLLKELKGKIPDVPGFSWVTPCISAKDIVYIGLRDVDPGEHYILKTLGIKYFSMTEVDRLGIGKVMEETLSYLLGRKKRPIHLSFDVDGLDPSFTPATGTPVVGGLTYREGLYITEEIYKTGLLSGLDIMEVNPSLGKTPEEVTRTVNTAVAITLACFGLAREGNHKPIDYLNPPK
Briefly: Arginase inhibitory activity test, enzymatic assay based on urea measurement (Arg 1). The source holds these as a separate data set.

Counter-ions that a name gives are not always drawn. Like-named read-outs stand apart in the source and are kept apart here.

In the case of `CN(C[C@H](N)C(F)F)S(=O)(=O)N1C[C@H](CCCB(O)O)[C@](N)(C(=O)O)C1` (racemic), the IC50 in assay [1] fell in the range of 100 to 1000 nM.

Take `N[C@@H](CNS(=O)(=O)N1C[C@H](CCCB(O)O)[C@](N)(C(=O)O)C1)C(F)F` (racemic): the IC50 in assay [1] was in the range of 100 to 1000 nM.

On to `N[C@@]1(C(=O)O)CN(S(N)(=O)=O)C[C@@H]1CCCB(O)O` (racemic) [Example 1, (rac)trans-3-amino-4-(3-boronopropyl)-1-sulfamoylpyrrolidine-3-carboxylic acid, (1:1) 2,2,2-trifluoroacetic acid salt], for which the IC50 in assay [2] was 100 to 1000 nM; in assay [3] it was less than 100 nM.

Take `Nc1c(N2C[C@H](CCCB(O)O)[C@](N)(C(=O)O)C2)c(=O)c1=O` (racemic) [Example 3, (rac)trans-3-amino-1-(2-amino-3,4-dioxocyclobut-1-en-1-yl)-4-(3-boronopropyl)pyrrolidine-3-carboxylic acid, (1:1) 2,2,2-trifluoroacetic acid salt]: the IC50 in assay [2] and in assay [3] was 100 to 1000 nM each time.

In the case of `N[C@@]1(C(=O)O)CN(S(=O)(=O)Nc2ccccn2)C[C@@H]1CCCB(O)O` (racemic) [Example 4, (rac)trans-3-amino-4-(3-boronopropyl)-1-(N-(pyridin-2-yl)sulfamoyl)pyrrolidine-3-carboxylic acid compound with 2,2,2-trifluoroacetic acid (1:2)], the IC50 in assay [2] and in assay [3] was 100 to 1000 nM in each case.

Regarding `NCCNS(=O)(=O)N1C[C@H](CCCB(O)O)[C@](N)(C(=O)O)C1` (racemic) [Example 5, (rac)trans-3-amino-1-(N-(2-aminoethyl)sulfamoyl)-4-(3-boronopropyl)pyrrolidine-3-carboxylic acid compound with 2,2,2-trifluoroacetic acid (1:2)], the IC50 in assay [2] and in assay [3] was less than 100 nM in each case.

Take `N[C@@]1(C(=O)O)CN(S(=O)(=O)Nc2cc[nH]n2)C[C@@H]1CCCB(O)O` (racemic) [Example 6, (rac)trans-1-(N-(1H-pyrazol-3-yl)sulfamoyl)-3-amino-4-(3-boronopropyl)pyrrolidine-3-carboxylic acid, (1:2) 2,2,2-trifluoroacetic acid salt]: the IC50 in assay [2] and in assay [3] was 100 to 1000 nM each time.

`CC(C)(N)CNS(=O)(=O)N1C[C@H](CCCB(O)O)[C@](N)(C(=O)O)C1` (racemic) [Example 25, (rac)-trans-3-amino-1-(N-(2-amino-2-methylpropyl)sulfamoyl)-4-(3-boronopropyl)pyrrolidine-3-carboxylic acid, (1:2) 2,2,2-trifluoroacetic acid salt]: the IC50 in assay [2] and in assay [3] was less than 100 nM in each case.

With `CC(C)(CN)NS(=O)(=O)N1C[C@H](CCCB(O)O)[C@](N)(C(=O)O)C1` (racemic) [Example 26, (rac)-trans-3-amino-1-(N-(1-amino-2-methylpropan-2-yl)sulfamoyl)-4-(3-boronopropyl)pyrrolidine-3-carboxylic acid, (1:2) 2,2,2-trifluoroacetic acid salt], the IC50 in assay [2] and in assay [3] was less than 100 nM in each case.

Turning to `N[C@@]1(C(=O)O)CN(S(=O)(=O)N2CCNCC2)C[C@@H]1CCCB(O)O` (racemic) [Example 30, (rac)-trans-3-amino-4-(3-boronopropyl)-1-(piperazin-1-ylsulfonyl)pyrrolidine-3-carboxylic acid, 2,2,2-trifluoroacetic acid salt (1:2)], the IC50 in assay [2] was 100 to 1000 nM; in assay [3], less than 100 nM.

With `NCC1(NS(=O)(=O)N2C[C@H](CCCB(O)O)[C@](N)(C(=O)O)C2)COC1` (racemic) [Example 31], the IC50 is 100 to 1000 nM in assay [2] and less than 100 nM in assay [3].

For `N=C(N)N1C[C@H](CCCB(O)O)[C@](N)(C(=O)O)C1` (racemic) [Example 37, rac-(trans)-3-amino-4-(3-boronopropyl)-1-carbamimidoylpyrrolidine-3-carboxylic acid, 2,2,2-trifluoroacetic acid salt (1:2)], the IC50 in assay [2] and in assay [3] was 100 to 1000 nM each time.

On to `N[C@@]1(C(=O)O)CN(S(=O)(=O)N(CC2CC2)[C@H]2CCCNC2)C[C@@H]1CCCB(O)O` [Example 72, (3R,4S)-3-amino-4-(3-boronopropyl)-1-(N-(cyclopropylmethyl)-N-((S)-piperidin-3-yl)sulfamoyl)pyrrolidine-3-carboxylic acid, 2,2,2-trifluoroacetic acid salt (1:2)], for which the IC50 in assay [3] is less than 100 nM.

Turning to `N[C@@]1(C(=O)O)CN(S(=O)(=O)N(CC2CC2)[C@@H]2CCCNC2)C[C@@H]1CCCB(O)O` [Example 73, (3R,4S)-3-amino-4-(3-boronopropyl)-1-(N-(cyclopropylmethyl)-N-((R)-piperidin-3-yl)sulfamoyl)pyrrolidine-3-carboxylic acid, 2,2,2-trifluoroacetic acid salt (1:2)], in assay [3], the IC50 is less than 100 nM.

For `N[C@@]1(C(=O)O)CN(S(=O)(=O)N(CC2CC2)C2CCNCC2)C[C@@H]1CCCB(O)O` [Example 74, (3R,4S)-3-amino-4-(3-boronopropyl)-1-(N-(cyclopropylmethyl)-N-(piperidin-4-yl)sulfamoyl)pyrrolidine-3-carboxylic acid, 2,2,2-trifluoroacetic acid salt (1:2)], the IC50 in assay [3] is less than 100 nM.

For the compound `CCN(C1CNC1)S(=O)(=O)N1C[C@H](CCCB2O[C@H]3C[C@H]4C[C@H](C4(C)C)[C@@]3(C)O2)[C@](N)(C(=O)O)C1` [Example 75, (3R,4S)-3-amino-1-(N-(azetidin-3-yl)-N-ethylsulfamoyl)-4-(3-((3aR,4R,6R,7aS)-3a,5,5-trimethylhexahydro-4,6-methanobenzo[d][1,3,2]dioxaborol-2-yl)propyl)pyrrolidine-3-carboxylic acid], in assay [3], the IC50 is less than 100 nM.

As for “(rac)trans-3-amino-1-(N-((S)-2-aminopropyl)sulfamoyl)-4-(3-boronopropyl)pyrrolidine-3-carboxylic acid (diastereomers), 2,2,2-trifluoroacetic acid salt (1:2) [Example 18]”, the IC50 in assay [3] (read-out: Arg 1 enzymatic potency, recombinant human arginase 1, 37° C. for 120 min, urea detection) lay in the range of 100 to 1000 nM.
